Assay results: patent US20080107603A1, “Neuroprotectant methods, compositions, and screening methods thereof” (priority 2002, published 2008)

How the values were obtained:
[1] = tested on: NF-κB; assay: EMSA, Aβ25-35-induced NF-κB DNA binding activity; type: cell-based, Rat; details: 25 μM Aβ25-35 for 1 h; EGT pretreatment (0.5 mM, 1 mM)
Description: To explore the molecular mechanisms underlying the protective effect of L-ergothioneine against Aβ25-35-induced nitrosative cell death, the activation of NF-κB was assessed by EMSA using an oligonucleotide containing a consensus κB binding element. After treatment with 25 μM Aβ25-35 for 1 h in the absence or presence of L-ergothioneine, PC12 cells (1×10^7 cells/7 ml in 100φ dish) were washed with PBS, centrifuged, and resuspended in ice-cold isotonic buffer A [10 mM HEPES, pH 7.9, 1.5 mM MgCl2, 10 mM KCl, 0.5 mM dithiothreitol (DTT) and 0.2 mM phenylmethylsulfonyl fluoride (PMSF)]. Following incubation in an ice bath for 10 min, cells were centrifuged again and resuspended in ice-cold buffer C containing 20 mM HEPES (pH 7.9), 20% glycerol, 420 mM […], 1.5 mM MgCl2, 0.2 mM EDTA, 0.5 mM DTT and 0.2 mM PMSF followed by incubation at 0° C. for 20 min. After vortex-mixing, the resulting suspension was centrifuged, and the supernatant was stored at −70° C. for the NF-κB DNA binding assay. The protein concentration was determined by using the BCA protein assay kit.
Synthetic double strand oligonucleotide containing the NF-κB binding domain was labeled with [γ-^32P]ATP using T4 polynucleotide kinase and separated from unincorporated [γ-^32P]ATP by gel filtration using a nick spin column (Phamacia Biotech, Bjorkgatan, Sweden). […]

[2] = Dog; cited from earlier work

Compound: C[N+](C)(C)[C@@H](Cc1c[nH]c(=S)[nH]1)C(=O)[O-] [L-ergothioneine, 2-mercaptohistidine trimethylbetaine]
- NF-κB DNA binding [1]: inhibited
- L-Ergothioneine Concentration (mg/100 ml blood) [2]: 3-6 mg/100 ml blood
